Test system: tps2Δ strains
Test: Sensitivity towards antifungals, growth curves in liquid medium in microtiter wells (bioscreen C)
Type: cell-based, Saccharomyces cerevisiae
Settings: 10^-6 M ketoconazole, 33°C, cells pre-grown to stationary phase, OD 600 nm, after 24 hours
Method: Sensitivity towards the antifungals itraconazole and ketoconazole was tested in microtiter wells using a bioscreen C apparatus (Life sciences, Labsystems) and on solid culture media.
Yeast cells were pre-grown in YPglucose medium till stationary phase. The cells were diluted to a initial optical density of 0.05 OD and 300 µl of cell suspension was added to each well of a microtiter plate. Three µl of the correct stock solution of the compound, dissolved in DMSO, were added to each well. For the control reactions, only DMSO was added. The microtiter plate was placed in the bioscreen C apparatus and were incubated at 33°C or 37°C, with medium intensity shaking (30 seconds shaking per minute). The optical density at 600 nm was measured every 30 min.
The effect of the addition of 10^-7 M Itraconazole and 10^-6 Ketoconazole on the growth curve of prototrophic tps2Δ strain PVD32 and wild type strain PVD23 at 33°C is shown in Figures 3 and 4 respectively.
The effect of different concentrations of itraconazole on the growth at 33°C of the diploid wild type strain (PVD190) and the diploid heterozygous tps2Δ strain PVD191 was tested and the results are presented in Figure 5.

CC(=O)N1CCN(c2ccc(OCC3COC(Cn4ccnc4)(c4ccc(Cl)cc4Cl)O3)cc2)CC1 (stereo not shown) [ketoconazole]
effect on growth: no detectable growth

— patent publication EP1081232A1, “Novel target for antifungals” (K.U. LEUVEN RESEARCH & DEVELOPMENT, priority 1999, dated 2001)
